In patent US5840725A, “Substituted oximes, hydrazones and olefins as neurokinin antagonists” (Schering Corporation, priority 1997, dated 1998):
Like-named read-outs stand apart in the source and are kept apart here.

Columns and labels:
[1] = target: T1, human neurokinin 1 (NK1) receptor (Homo sapiens, UniProt P25103); assay: Neurokinin Receptor Binding Assay, NK1
T1 construct: expressed in transfected cells; host or cells: Chinese Hamster ovary (CHO) cells
Method: (§1) Neurokinin Receptor Binding Assay(s)
(§2) Chinese Hamster ovary (CHO) cells transfected with the coding regions for the human neurokinin 1 (NK1) of the human neurokinin 2 (NK2) receptors are grown in Dulbecco's minimal essential medium supplemented with 10% fetal calf serum, 0.1 mM non-essential amino acids, 2 mM glutamine, 100units/ml of penicillin and streptomycin, and 0.8 mg of G418/ml at 37° C. in a humidified atmosphere containing 5% CO2.
(§3) Cells are detached from T-175 flasks with a sterile solution containing 5 mM EDTA in phosphate buffered saline. Cells are harvested by centrifugation and washed in RPMl media at […] for 5 minutes. The pellet is resuspended inTris-HCl (pH7.4) containing 1 uM phsphoramidon and 4 ug/ml of chymostatin at a cell density of 30×10^6 cells/ml. The suspension is then homogenized in a Brinkman Polytron (setting 5) for 30-45 seconds. The homogenate is centrifuged at 800×g for 5 min at 4° C. to collect unbroken cells and nuclei. The supernatant is centrifuged in a Sorvall RC5C at 19,000 rpm ([…]) for 30 min at 4° C. The pellet is resuspended, an aliquot is removed for a protein determination (BCA) and washed again. The resulting pellet is stored at -80° C.
(§4) To assay receptor binding, 50 μl of [^3 H]-Substance P (9-Sar, 11 -Met) (specific activity 41 Ci/mmol) (Dupont-NEN) (0.8 nM for the NK-1 assay) or [^3 H]-Neurokinin A (specific activity 114 Ci/mmole) (Zenca) (1.0 nM for the NK-2 assay) is added to tubes containing buffer (50 mM Tris-HCl (pH 7.4) with 1 mM MnCl2 and 0.2% Bovine Serum Albumin) and either DMSO or test compound. Binding is initiated by the addition of 100 μl of membrane (10-20 μg) containing the human NK-1 or NK-2 receptor in a final volume of 200 μl. After 40 minutes at room temperature, the reaction is stopped by rapid filtration onto Whatman GF/C filters which have been presoaked in 0.3% polyethylenimine. Filters are washed 2 times with 3 ml of 50 mM Tris-HCl (pH7.4). Filters are added to 6 mIs of Ready-Safe liquid scintillation cocktail and quantified by liquid scintillation spectrometry in a LKB 1219 RackBeta counter. Non-specific binding is determined by the addition of either 1 μM of CP-99994 (NK-1) or 1 μM SR-48968 (NK-2) (both synthesized by the chemistry department of Schering-Plough Research Institute). IC50 values are determined from competition binding curves and Ki values are determined according to Cheng and Prusoff using the experimentally determined value of 0.8 nM for the NK-1 receptor and 2.4 nM for the NK-2 receptor.
(§5) % Inhibition is the difference between the percent of maximum specific binding (MSB) and 100%. The percent of MSB is defined by the following equation, wherein "dpm" is disintegrations per minute: [formula]

[2] = target: T2, human neurokinin 2 (NK2) receptor (Homo sapiens, UniProt P21452); assay: Neurokinin Receptor Binding Assay, NK2; conditions: for inhibition at 1 µM: read-out: % Inhibition NK2 (1 μM dose)
T2 construct: expressed in transfected cells; host or cells: Chinese Hamster ovary (CHO) cells
T2 sequence (P21452 1-398): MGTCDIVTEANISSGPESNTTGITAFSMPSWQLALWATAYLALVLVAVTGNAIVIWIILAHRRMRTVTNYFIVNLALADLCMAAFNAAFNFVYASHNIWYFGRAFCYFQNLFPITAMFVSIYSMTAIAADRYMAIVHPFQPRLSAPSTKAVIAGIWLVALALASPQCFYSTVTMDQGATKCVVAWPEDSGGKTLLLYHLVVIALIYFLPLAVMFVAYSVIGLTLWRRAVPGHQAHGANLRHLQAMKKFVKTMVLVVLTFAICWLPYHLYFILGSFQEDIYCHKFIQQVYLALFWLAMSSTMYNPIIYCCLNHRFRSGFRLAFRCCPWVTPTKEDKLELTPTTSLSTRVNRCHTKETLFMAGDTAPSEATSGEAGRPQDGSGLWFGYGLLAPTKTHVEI
Method: as §1, §2, §3, §4, §5

NK3 = target: T3, NK3 (Homo sapiens, UniProt P29371); assay: NK3 activity (procedure similar to literature); assay type: binding
T3 sequence (P29371 1-465): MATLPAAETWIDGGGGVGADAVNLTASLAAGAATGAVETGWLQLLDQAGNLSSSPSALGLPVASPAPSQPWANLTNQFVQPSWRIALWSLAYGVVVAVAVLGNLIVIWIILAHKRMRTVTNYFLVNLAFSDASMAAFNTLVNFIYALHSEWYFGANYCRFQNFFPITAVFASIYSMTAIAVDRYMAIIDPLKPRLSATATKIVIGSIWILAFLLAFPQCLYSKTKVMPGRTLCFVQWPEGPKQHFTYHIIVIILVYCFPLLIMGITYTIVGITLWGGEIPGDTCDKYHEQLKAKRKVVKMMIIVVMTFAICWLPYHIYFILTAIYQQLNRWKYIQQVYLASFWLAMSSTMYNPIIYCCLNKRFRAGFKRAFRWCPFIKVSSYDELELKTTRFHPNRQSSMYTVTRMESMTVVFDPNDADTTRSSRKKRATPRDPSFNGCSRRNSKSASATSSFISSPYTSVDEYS
Method: NK3 activity is determined by following a procedure similar to that described in the literature, e.g., Molecular PharmacoL, 48 (1995), p. 711-716.

[3] = [3H]-Substance P, CHO cell membranes
[4] = 1 μM dose, [3H]-Neurokinin A, CHO cell membranes
[5] = [3H]-Neurokinin A, CHO cell membranes, read-out: Ki (NK2)
[6] = [3H]-Substance P, CHO cell membranes, read-out: Ki (NK1)

T1 sequence (P25103 whole entry): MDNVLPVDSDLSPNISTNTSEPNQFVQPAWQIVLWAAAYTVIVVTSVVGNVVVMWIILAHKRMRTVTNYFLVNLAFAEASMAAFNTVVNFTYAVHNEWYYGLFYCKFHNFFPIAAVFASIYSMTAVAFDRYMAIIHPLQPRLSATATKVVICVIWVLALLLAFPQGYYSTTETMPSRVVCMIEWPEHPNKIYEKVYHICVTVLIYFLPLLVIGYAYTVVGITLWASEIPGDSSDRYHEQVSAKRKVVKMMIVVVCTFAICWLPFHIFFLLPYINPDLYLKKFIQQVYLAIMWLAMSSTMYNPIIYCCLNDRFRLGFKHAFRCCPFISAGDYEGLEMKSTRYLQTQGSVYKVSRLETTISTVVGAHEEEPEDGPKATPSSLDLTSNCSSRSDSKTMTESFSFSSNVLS

Structure (SMILES)	inhibition at 1 µM [1, 3] [%]	inhibition at 1 µM [2, 4] [%]	Ki [2, 5] [nM]	Ki [1, 6] [nM]	Ki [1] [nM]	Ki (NK3) [nM]	Ki [2] [nM]	inhibition at 1 µM [2] [%]
CON=C(COCc1noc(C(C)(C)C)n1)C(CCN1CCC(O)(c2ccccc2)CC1)c1ccc(Cl)c(Cl)c1 (stereo not shown) [Example 22AL]	12	100	2					
NC(CON=C(COCc1cc(C(F)(F)F)cc(C(F)(F)F)c1)C(CCN1CCC(N2CCCCC2)CC1)c1ccc(Cl)c(Cl)c1)=NO (stereo not shown) [Example 39F]	93	96	12	4.3				
CCOC(=O)C=C(COCc1cc(C(F)(F)F)cc(C(F)(F)F)c1)C(CCN1CCC(O)(c2ccccc2)CC1)c1ccc(Cl)c(Cl)c1 (stereo not shown) [Example 2]	69	17		40				
CON=C(COCc1cc(C(F)(F)F)cc(C(F)(F)F)c1)C(CCN1CCC(O)(c2ccccc2)CC1)c1ccc(Cl)c(Cl)c1 (stereo not shown) [Example 1]	88				25	109	20	95
CON=C(COCc1cc(C(F)(F)F)cc(C(F)(F)F)c1)C(CCN1CCC(C(=O)N2CCCC2)CC1)c1ccc(Cl)c(Cl)c1 (stereo not shown) [Example 42L]	91	86	123	4.6				
CN1CCN(N=C(COCc2cc(C(F)(F)F)cc(C(F)(F)F)c2)C(CCN2CCC(O)(c3ccccc3)CC2)c2ccc(Cl)c(Cl)c2)CC1 (stereo not shown) [Example 7]	69	13		121				
CON=C(COCc1cccc(C)c1F)C(CCN1CCC(O)(c2ccccc2)CC1)c1ccc(Cl)c(Cl)c1 (stereo not shown) [Example 22AK]	67	95	2	132				
OC1(c2ccccc2)CCN(CCC(C(COCc2cc(C(F)(F)F)cc(C(F)(F)F)c2)=NOCc2ccccc2)c2ccc(Cl)c(Cl)c2)CC1 (stereo not shown) [Example 1C]	44	16						
OCCN(CC=C(COCc1cc(C(F)(F)F)cc(C(F)(F)F)c1)C(CCN1CCC(O)(c2ccccc2)CC1)c1ccc(Cl)c(Cl)c1)CCO (stereo not shown) [Example 35C]	93	0		2				
